Earlier results on one compound are cited in patent US20230201290A1, “TGF-BETA INHIBITION, AGENTS AND COMPOSITION THEREFOR” (GMP BIOTECHNOLOGY LIMITED, priority 2020, published 2023).

For this data set, the system named is Vero E6 cells. Conditions: remdesivir, literature; cited from earlier work.

With `CCC(CC)COC(=O)[C@H](C)N[P@](=O)(OC[C@H]1O[C@@](C#N)(c2ccc3c(N)ncnn23)[C@H](O)[C@@H]1O)Oc1ccccc1` [Remdesivir], the CC50 was more than 200 µM.

One may read the CC50 as the concentration giving 50% cytotoxicity.
